Assay results taken from patent US10239873B2, “7-azaindole or 4,7-diazaindole derivatives as IKKϵ epsilon and TBK1 inhibitor and pharmaceutical composition comprising same” (GREEN CROSS CORPORATION, priority 2015, dated 2019).

Target: T1, TBK1 (Homo sapiens, UniProt Q9UHD2)
T1 construct: purchased Promega (Invitrogen is also named in the same bracket) V4158; PR8031B; V3991 (not assigned to the two kinases)
T1 sequence (Q9UHD2 1-729): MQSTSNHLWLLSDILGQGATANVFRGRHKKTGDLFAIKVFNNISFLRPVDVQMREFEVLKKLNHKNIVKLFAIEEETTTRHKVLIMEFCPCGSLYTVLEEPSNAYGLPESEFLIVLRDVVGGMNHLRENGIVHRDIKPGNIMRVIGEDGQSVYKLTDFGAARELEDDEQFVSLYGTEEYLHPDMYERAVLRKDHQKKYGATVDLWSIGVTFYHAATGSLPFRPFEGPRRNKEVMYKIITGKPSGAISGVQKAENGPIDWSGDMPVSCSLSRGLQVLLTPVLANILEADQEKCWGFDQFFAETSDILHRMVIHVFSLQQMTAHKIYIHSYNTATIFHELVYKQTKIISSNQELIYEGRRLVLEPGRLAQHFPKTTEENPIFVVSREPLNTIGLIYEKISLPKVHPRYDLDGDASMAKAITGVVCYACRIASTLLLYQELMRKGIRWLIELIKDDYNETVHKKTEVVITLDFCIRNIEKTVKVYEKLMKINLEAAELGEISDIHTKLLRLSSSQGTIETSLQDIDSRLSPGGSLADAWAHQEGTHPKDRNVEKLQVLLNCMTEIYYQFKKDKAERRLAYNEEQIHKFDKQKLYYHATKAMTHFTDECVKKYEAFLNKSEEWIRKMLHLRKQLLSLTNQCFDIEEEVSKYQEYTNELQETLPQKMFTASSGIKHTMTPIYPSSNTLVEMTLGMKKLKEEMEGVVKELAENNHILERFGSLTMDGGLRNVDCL
Assay: ADP-Glo Kinase Assay, inhibition activity on TBK1
Assay type: biochemical
Method: Inhibition activities on IKKϵ and TBK1 were evaluated using the compounds of Examples 1 to 250.
The inhibition activities on IKKϵ and TBK1 were measured by a luminometer, IKKϵ/TBK1 Kinase Enzyme System (Promega, Ca# V4158; Invitrogen, PR8031B, Promega, Ca# V3991) and ADP-Glo Kinase Assay using ADP-Glo™ Kinase Analysis Kit (Promega, Ca# V9101) and a kinase reaction buffer [40 mM Tris(pH 7.5), 20 mM MgCl2, 0.1 mg/mL BSA] in accordance with the manufacturer's protocol.

SMILES | IC50
CNS(=O)(=O)c1ccc(-c2cnc3[nH]cc(C4=CCN(C(=O)OC5CCCC5)CC4)c3c2)cc1 [Example 178, Cyclopentyl 4-(5-(4-(N-methylsulfamoyl)phenyl)-1H-pyrrolo[2,3-b]pyridin-3-yl)-5,6-dihydropyridine-1(2H)-carboxylate] | 0.17 µM
O=C(NC1CCCC1)N1CC=C(c2c[nH]c3ncc(-c4ccc(OCCN5CCOCC5)cc4)cc23)CC1 [Example 69, N-cyclopentyl-4-(5-(4-(2-morpholinoethoxy)phenyl)-1H-pyrrolo[2,3-b]pyridin-3-yl)-5,6-dihydropyridine-1(2H)-carboxamide] | 0.065 µM
CCC(C)OC(=O)N1CC=C(c2c[nH]c3ncccc23)CC1 (centres unmarked) [Example 141, sec-Butyl 4-(1H-pyrrolo[2,3-b]pyridin-3-yl)-5,6-dihydropyridine-1(2H)-carboxylate] | 0.5 µM
COc1ccc(-c2cnc3[nH]cc(C4=CN(C(=O)OC(C)(C)C)CCC4)c3c2)cc1OC [Example 245, tert-butyl 5-(5-(3,4-dimethoxyphenyl)-1H-pyrrolo[2,3-b]pyridin-3-yl)-3,4-dihydropyridine-1(2H)-carboxylate] | 8.8 µM
CNS(=O)(=O)c1ccc(-c2cnc3[nH]c(C)c(C4=CCN(C(=O)NC5CCCC5)CC4)c3c2)cc1 [Example 222, N-cyclopentyl-4-(2-methyl-5-(4-(N-methylsulfamoyl)phenyl)-1H-pyrrolo[2,3-b]pyridin-3-yl)-5,6-dihydropyridine-1(2H)-carboxamide] | 6.8 µM
CC(C)(C)OC(=O)N1CC=C(c2c[nH]c3ncc(-c4ccc(S(C)(=O)=O)cc4)cc23)CC1 [Example 164, tert-Butyl 4-(5-(4-(methylsulfonyl)phenyl)-1H-pyrrolo[2,3-b]pyridin-3-yl)-5,6-dihydropyridine-1(2H)-carboxylate] | 0.25 µM
COC(=O)c1ccc(-c2cnc3[nH]cc(C4=CCN(C(=O)OC(C)(C)C)CC4)c3c2)cc1 [Example 167, tert-Butyl 4-(5-(4-(methoxycarbonyl)phenyl)-1H-pyrrolo[2,3-b]pyridin-3-yl)-5,6-dihydropyridine-1(2H)-carboxylate] | 1.6 µM
CN1CCN(Cc2ccc(-c3cnc4[nH]cc(C5=CCN(C(=O)NC6CCCC6)CC5)c4c3)s2)CC1 [Example 71, N-cyclopentyl-4-(5-(5-((4-methylpiperazin-1-yl)methyl)thiophen-2-yl)-1H-pyrrolo[2,3-b]pyridin-3-yl)-5,6-dihydropyridine-1(2H)-carboxamide] | 0.005 µM
CN(C(=O)N1CC=C(c2c[nH]c3ncc(-c4cccc(S(N)(=O)=O)c4)cc23)CC1)C1CCCC1 [Example 218, N-cyclopentyl-N-methyl-4-(5-(3-sulfamoylphenyl)-1H-pyrrolo[2,3-b]pyridin-3-yl)-5,6-dihydropyridine-1(2H)-carboxamide] | > 10 µM
COc1ccc(-c2cnc3[nH]cc(C4=CCN(C(=O)c5cccs5)CC4)c3c2)cc1OC [Example 191, (4-(5-(3,4-Dimethoxyphenyl)-1H-pyrrolo[2,3-b]pyridin-3-yl)-5,6-dihydropyridin-1(2H)-yl)(thiophen-2-yl)methanone] | 0.11 µM
CCC1CN(C(=O)NC2CCCC2)CC=C1c1c[nH]c2ncc(-c3ccc(CN4CCOCC4)s3)cc12 (centres unmarked) [Example 128, N-cyclopentyl-5-ethyl-4-(5-(5-(morpholinomethyl)thiophen-2-yl)-1H-pyrrolo[2,3-b]pyridin-3-yl)-5,6-dihydropyridine-1(2H)-carboxamide] | 0.071 µM
O=C(OC1CCCCC1)N1CC=C(c2c[nH]c3ncccc23)CC1 [Example 143, Cyclohexyl 4-(1H-pyrrolo[2,3-b]pyridin-3-yl)-5,6-dihydropyridine-1(2H)-carboxylate] | 1 µM
O=C(NCc1ccco1)c1ccc(-c2cnc3[nH]cc(C4=CCN(C(=O)NC5CCCC5)CC4)c3c2)cc1 [Example 66, N-cyclopentyl-4-(5-(4-((furan-2-ylmethyl)carbamoyl)phenyl)-1H-pyrrolo[2,3-b]pyridin-3-yl)-5,6-dihydropyridine-1(2H)-carboxamide] | 0.25 µM
O=C(OC1CCCC1)N1CC=C(c2c[nH]c3ncc(-c4cccc(C(=O)N5CCOCC5)c4)cc23)CC1 [Example 184, Cyclopentyl 4-(5-(3-(morpholine-4-carbonyl)phenyl)-1H-pyrrolo[2,3-b]pyridin-3-yl)-5,6-dihydropyridine-1(2H)-carboxylate] | 0.1 µM
CCC(C)NC(=O)N1CC=C(c2c[nH]c3ncc(-c4ccc(CN5CCOCC5)s4)cc23)CC1 (centres unmarked) [Example 43, N-(sec-butyl)-4-(5-(5-(morpholinomethyl)thiophen-2-yl)-1H-pyrrolo[2,3-b]pyridin-3-yl)-5,6-dihydropyridine-1(2H)-carboxamide] | 0.0055 µM
O=C(NC1CCCC1)N1CC=C(c2c[nH]c3ncc(-c4ccc(S(=O)(=O)N5CCOCC5)cc4)cc23)CC1 [Example 61, N-cyclopentyl-4-(5-(4-(morpholinosulfonyl)phenyl)-1H-pyrrolo[2,3-b]pyridin-3-yl)-5,6-dihydropyridine-1(2H)-carboxamide] | 0.086 µM
CC(C)OC(=O)N1CC=C(c2c[nH]c3ncc(-c4cccc(S(C)(=O)=O)c4)cc23)CC1 [Example 149, Isopropyl 4-(5-(3-(methylsulfonyl)phenyl)-1H-pyrrolo[2,3-b]pyridin-3-yl)-5,6-dihydropyridine-1(2H)-carboxylate] | 0.03 µM
CNS(=O)(=O)c1cccc(-c2cnc3[nH]cc(C4=CCN(C(=O)NC5CCCC5)CC4)c3c2)c1 [Example 59, N-cyclopentyl-4-(5-(3-(N-methylsulfamoyl)phenyl)-1H-pyrrolo[2,3-b]pyridin-3-yl)-5,6-dihydropyridine-1(2H)-carboxamide] | 0.03 µM
O=C(NC1CCCC1)N1CC=C(c2c[nH]c3ncc(-c4cccc(S(=O)(=O)N5CCOCC5)c4)cc23)CC1 [Example 62, N-cyclopentyl-4-(5-(3-(morpholinosulfonyl)phenyl)-1H-pyrrolo[2,3-b]pyridin-3-yl)-5,6-dihydropyridine-1(2H)-carboxamide] | 0.091 µM
O=C(c1cccs1)N1CC=C(c2c[nH]c3ncc(-c4ccc(F)c(F)c4)cc23)CC1 [Example 189, (4-(5-(3,4-Difluorophenyl)-1H-pyrrolo[2,3-b]pyridin-3-yl)-5,6-dihydropyridin-1(2H)-yl)(thiophen-2-yl)methanone] | > 10 µM
COc1ccc(-c2cnc3[nH]cc(C4=CCN(C(=O)OC5CCCC5)CC4)c3c2)cc1OC [Example 144, Cyclopentyl 4-(5-(3,4-dimethoxyphenyl)-1H-pyrrolo[2,3-b]pyridin-3-yl)-5,6-dihydropyridine-1(2H)-carboxylate] | 0.46 µM
O=C(NC1CCCC1)N1CC=C(c2c[nH]c3ncc(-c4cccc(OCCN5CCOCC5)c4)cc23)CC1 [Example 68, N-cyclopentyl-4-(5-(3-(2-morpholinoethoxy)phenyl)-1H-pyrrolo[2,3-b]pyridin-3-yl)-5,6-dihydropyridine-1(2H)-carboxamide] | 0.064 µM
CC(=O)Nc1ccc(N)c(-c2cnc3[nH]cc(C4=CCN(C(=O)NC5CCCC5)CC4)c3c2)c1 [Example 65, 4-(5-(5-Acetamido-2-aminophenyl)-1H-pyrrolo[2,3-b]pyridin-3-yl)-N-cyclopentyl-5,6-dihydropyridine-1(2H)-carboxamide] | 1.9 µM
